# Active and inactive are the calls of the source. How the calls were made is not given here.
# Tested on: UPR adaptive arm reporter cells, luciferase luminescence
# Experiment: adaptive unfolded protein response reporter activation – cell-based, luciferase luminescence, dose response (AID 489032)
row,Structure (SMILES),EC50
1,COc1cc(N(C(=O)Cc2cccs2)C(C(=O)NC2CCCCC2)c2ccc(C)cc2)ccc1-n1cnnn1 (stereo not given),> 80 µM (inactive)
2,CCOc1ccc(S(=O)(=O)Nc2cccc(C(=O)NCC3(N4CCCCC4)CCCCC3)c2)cc1,15.3 µM
3,Cc1cc(N2CCN(c3ccc([N+](=O)[O-])c4cccnc34)CC2)c2ccccc2n1,21.4 µM (inactive)
4,COc1ccc(CCn2c(=S)[nH]c3cc(C(=O)NCc4ccco4)ccc3c2=O)cc1OC,> 80 µM (inactive)
5,O=C1Nc2ccccc2/C1=C/c1ccc([N+](=O)[O-])cc1,> 80 µM (inactive)
6,Cc1cnc(NC(=O)c2cc3c(C)nn(Cc4ccccc4Cl)c3s2)s1,> 80 µM (inactive)
7,COc1cc(/C=C/c2ccc3cccc(O)c3n2)ccc1O,> 80 µM (inactive)
8,O=C(NC(=S)Nc1cc(-c2nc3ccccc3[nH]2)ccc1Cl)c1ccc2c(c1)OCO2,10.1 µM
9,CCCCNC(=O)c1ccc(Cn2c(=S)[nH]c3c([nH]c4ccc(OC)cc43)c2=O)cc1,> 80 µM (inactive)
10,Clc1ccc(-c2ccc(/C=N/Nc3nncc(-c4ccccc4)n3)o2)cc1,> 80 µM (inactive)
11,O=C(/C=C/c1ccccc1)c1ccccc1O,> 80 µM (inactive)
12,COc1cccc(-n2c(SCC(=O)N3CCc4ccccc43)nnc2-c2c[nH]c3ccccc23)c1,> 80 µM (inactive)
13,O=C(NC1CCCCC1)c1cccc2c1C(=O)c1ccc(-c3ccc(OC(F)(F)F)cc3)cc1S2(=O)=O,> 80 µM (inactive)
14,Cc1ccc(C(=O)C(C(=O)/C=C/c2ccccc2)=C2SCCCS2)cc1,> 80 µM (inactive)
15,CC1=C(CC/C(C)=N/NC(N)=S)C(C)(C)CCC1,29.3 µM (inactive)
16,O=c1[nH]c(CSc2ncnc3sc(-c4ccccc4)cc23)nc2ccccc12,> 80 µM (inactive)
17,COc1ccc(OCc2n(CC(=O)OC3CC(C)CCC3C(C)C)c3ccccc3[n+]2C)cc1 (stereo not given),> 80 µM (inactive)
18,O=c1cc2oc3cc(O)c(O)cc3c(-c3ccccc3[N+](=O)[O-])c-2cc1O,> 80 µM (inactive)
19,FC(F)(F)c1nc2ccccc2n2c(-c3ccc(Cl)cc3)nnc12,> 80 µM (inactive)
20,CCCCCc1nc2c(c(=O)c3ccccc3n2C)c(=O)n1C1CCCCCC1,> 80 µM (inactive)
21,Cc1ccc(-c2[nH]ncc2/C=N/n2c(COc3ccccc3)nc3ccccc3c2=O)cc1,> 80 µM (inactive)
22,O=C1NC(=O)N(Cc2ccc(F)cc2)C(=O)/C1=C/c1cccs1,> 80 µM (inactive)
23,COC(=O)c1ccc(COc2ccccc2/C=C(\C#N)C(=O)Nc2c(C)cccc2C)cc1,> 80 µM (inactive)

row,Structure (SMILES),EC50
1,CCOc1ccc(/C=C/C(O)=C2/C(=O)NC3(C)CC2c2ccccc2O3)cc1OC (stereo not given),> 80 µM (inactive)
2,CCOC(=O)C1=C(C)N=C2SC(C(=O)OC)=CC(=O)N2C1c1ccc(F)cc1 (stereo not given),32.6 µM (inactive)
3,COc1cc(/C=N/Nc2nc(Nc3ccc(C)cc3)nc(-n3nc(C)cc3C)n2)cc(OC)c1OC,19.7 µM
4,O=c1cc(CN2CCN(c3ccccc3)CC2)c2cc(O)c(-c3ccccc3)cc2o1,27.4 µM (inactive)
5,CCOC(=O)c1nnc(-c2ccc(C)cc2)nc1Oc1ccccc1Cl,> 80 µM (inactive)
6,Cc1ccnc(N/C=C(\C#N)c2nc(-c3cccc(Br)c3)cs2)c1,20.7 µM (inactive)
7,CCn1cc(C(=O)NC(=S)Nc2sc3c(c2C(=O)OC)CCCCCC3)cn1,> 80 µM (inactive)
8,CN(C)CCCn1cnc2c(c1=N)C(c1ccccc1)c1ccc3ccccc3c1O2 (stereo not given),> 80 µM (inactive)
9,COc1ccc2[nH]c3c(c2c1)CCN1C(=O)C(CC(=O)NC/C=C(\C)CCC=C(C)C)C[C@H](C(=O)N(C(C)C)C(C)C)[C@@]31C (stereo not given in full),60.1 µM (inactive)
10,COc1cc(/C=C(\C#N)c2nc3ccccc3[nH]2)cc(Br)c1OCc1ccc(F)cc1,> 80 µM (inactive)
11,COc1ccc(-c2nn(-c3ccccc3)cc2/C=C/C(=O)OCC(=O)Nc2cccc(C#N)c2)cc1,11.9 µM
12,O=C(NCCCn1ccnc1)c1nn2c(C(F)(F)F)cc(-c3ccc(Br)cc3)nc2c1Cl,21.6 µM (inactive)
13,CCOC(=O)Cc1csc(/N=C/c2c(O)n(-c3ccc(C)c(C)c3)c(=O)c3ccccc23)n1,> 80 µM (inactive)
14,N#Cc1ccccc1/C=N/Nc1nc(-c2ccccc2)c2cc(Cl)ccc2n1,> 80 µM (inactive)
15,O=C(Nc1ccc(C(F)(F)F)cc1)c1cc(-c2cccnc2)nc2ccc(Br)cc12,15.6 µM
16,CC1CCCCC1N1CN=C(Nc2nc3ccccc3s2)NC1 (stereo not given),> 80 µM (inactive)
17,O=C1c2ccccc2C(=O)N1/N=C/c1ccc(O)c(O)c1,> 80 µM (inactive)
18,CCOc1cccc(C(=O)Nc2cccc(-c3nnc(-c4ccc(C)cc4)o3)c2)c1,> 80 µM (inactive)
19,COc1cc(NC(=O)c2ccc(C)cc2C)ccc1NC(=O)c1cc2ccccc2o1,> 80 µM (inactive)
20,O=C(N/N=C/c1ccc(Cl)cc1)c1sccc1OCc1ccc(F)cc1,49.3 µM (inactive)
21,CC(C)=CCc1c2c(c3occ(-c4ccc(O)cc4)c(=O)c3c1O)C=CC(C)(C)O2,> 80 µM (inactive)
22,COc1ccccc1CCNC(=O)C1CCN(c2nnc(C)c3c(C)n(-c4ccc(C)cc4)nc23)CC1,17.8 µM
23,Oc1ccc(Br)cc1/C=N/Nc1ccccn1,> 80 µM (inactive)

row,Structure (SMILES),EC50
1,CN(C)CC/C=C1\c2ccc(F)cc2Sc2cc(F)c(Cl)cc21,15.8 µM
2,CCC(=O)Nc1cccc(C(=O)/C=C/c2ccc(F)cc2)c1,> 80 µM (inactive)
3,CCOC(=O)c1cc(NC(=O)c2ccc(Cl)cc2)c(=O)n2c1oc1ccc(Cl)cc12,> 80 µM (inactive)
4,CCOc1ccccc1NC(=O)Cn1c(=O)n(-c2ccccc2)c(=O)c2oc3ccccc3c21,> 80 µM (inactive)
5,CCc1ccc2nc(N(CCCN(C)C)C(=O)c3ccc(S(=O)(=O)N4CCc5ccccc5C4)cc3)sc2c1,> 80 µM (inactive)
6,O=C(/C=C/c1ccccc1)NC(NC(=S)Nc1cccc(Cl)c1)C(Cl)(Cl)Cl (stereo not given),> 80 µM (inactive)
7,Cc1ccc2c(n1)sc1c(-c3ccc(Br)cc3)c(C#N)c(N)nc12,> 80 µM (inactive)
8,Cc1nn(-c2ccccc2)c(C)c1/C=N/NC(=O)CSc1nc2ccccc2c(=O)n1-c1ccc(Br)cc1,35.7 µM (inactive)
9,CC1CCc2c(sc(NC(=O)CCc3nc4ccccc4c(=O)[nH]3)c2C#N)C1 (stereo not given),30.3 µM (inactive)
10,CCN(CC)S(=O)(=O)c1ccc2c(c1)C(=NO)c1cc(S(=O)(=O)N(CC)CC)ccc1-2,18.6 µM
11,Cc1ccc(NS(=O)(=O)c2cc([N+](=O)[O-])ccc2N/N=C/c2sc(N3CCOCC3)nc2-c2ccccc2)c(C)c1,> 80 µM (inactive)
12,O=C1c2cccc3cc(Br)cc(c23)C(=O)N1Nc1ccc(Br)cc1,> 80 µM (inactive)
13,COc1ccc(C2CC(c3c(-c4ccccc4)c4cc(Cl)ccc4[nH]c3=O)=NN2S(C)(=O)=O)cc1 (stereo not given),> 80 µM (inactive)
14,COc1ccc(-c2csc(C3=C(O)CN(Cc4ccc(Cl)cc4)C3=N)n2)cc1OC,> 80 µM (inactive)
15,COC(=O)c1c(NC(=O)c2nc3ccccc3s2)sc2c1CC(C)(C)NC2(C)C,> 80 µM (inactive)
16,Cn1nc(C(F)(F)F)c(/C=N/OC(=O)c2ccccc2)c1SCc1ccccc1Cl,10.3 µM
17,COc1cc(/C=C(/C#N)c2nc3ccccc3[nH]2)ccc1OCC(=O)Nc1ccccc1C,> 80 µM (inactive)
18,CCn1c(/C=C/c2c(C)[nH]c3ccccc23)nc2ccccc2c1=O,> 80 µM (inactive)
19,Clc1ccc2c(c1)C(N1CCNCC1)Cc1ccccc1S2 (stereo not given),> 80 µM (inactive)
20,CCOc1ccccc1CNC(=O)C1CCN(c2nnc(C)c3c(C)n(-c4ccc(C)cc4)nc23)CC1,> 80 µM (inactive)
21,COc1ccc(-c2csc(NC(=S)NC(=O)/C=C/c3ccco3)n2)cc1Br,41.9 µM (inactive)
22,COc1ccc2cc1Oc1ccc(cc1)C[C@H]1c3c(cc(OC)c4c3Oc3c(ccc5c3[C@H](C2)N(C)CC5)O4)CCN1C,> 80 µM (inactive)
23,Cn1cc(/C=C(\C#N)C(=O)Nc2cccc([N+](=O)[O-])c2)c2ccccc21,> 80 µM (inactive)

row,Structure (SMILES),EC50
1,CN1/C(=C\C(=O)COC(=O)c2ccc(O)c(O)c2)C(C)(C)c2ccccc21,> 80 µM (inactive)
2,COc1ccc(Cn2c(SCc3ccccc3C)nc3cc(OC)c(OC)cc3c2=N)cc1,15.5 µM
3,CCc1sc2nc(SCC(=O)Nc3cc(C)on3)n(-c3cccc(OC)c3)c(=O)c2c1C,> 80 µM (inactive)
4,CCOC(=O)c1nnc(-c2ccc(C)cc2)nc1Sc1cccc(Cl)c1,> 80 µM (inactive)
5,N#C/C(=C\Nc1ccc2cn[nH]c2c1)c1nc(-c2ccc(Cl)cc2)cs1,15.1 µM
6,O=C(N/N=C/C(Br)=C\c1ccccc1)c1n[nH]c2c1CCC2,> 80 µM (inactive)
7,Cc1cccc2cc(C(c3nnnn3Cc3ccccc3)N3CCCc4ccccc43)c(=O)[nH]c12 (stereo not given),32.5 µM (inactive)
8,Cc1ccc2c(c1)C(=O)C(=O)N2Cc1ccc(Br)cc1,59.8 µM (inactive)
9,COc1cc(/C=C2/C(=N)N3C=CSC3=NC2=O)ccc1OCCCOc1cc(C)ccc1C,> 80 µM (inactive)
10,CCc1ccc(-c2nc(CN3CCC(C(=O)NCCN(CC)c4ccccc4)CC3)c(C)o2)cc1,> 80 µM (inactive)
11,Brc1cc2c(cc1/C=N/Nc1nc3ccccc3s1)OCO2,57 µM (inactive)
12,CCCCCCCCCCOC(=O)Cn1c(COc2ccc(C)cc2)[n+](C)c2ccccc21,> 80 µM (inactive)
13,CCOc1ccc(-n2nc3ccc(NC(=O)c4ccc5c(c4)OCCO5)cc3n2)cc1,> 80 µM (inactive)
14,N#Cc1c(-c2ccc3c(c2)OCO3)ccn2nc(-c3cccc(C(F)(F)F)c3)nc12,> 80 µM (inactive)
15,Cc1cc(NC(=O)c2cc(-c3ccncc3)nc3c(C)cccc23)no1,17.7 µM
16,Cc1ccc(-c2ccnc(-c3ccc(O)cc3)n2)cc1,63.8 µM (inactive)
17,CN(C)S(=O)(=O)c1ccc(N2CCCC2)c(C(=O)Nc2nc3ccccc3s2)c1,15.7 µM
18,CC(C)c1cccc(-c2ccc3c(c2)S(=O)(=O)c2cccc(C(=O)NCc4ccccc4Cl)c2C3=O)c1,38.4 µM (inactive)
19,COc1cccc(C(=O)Oc2cc3c4c(c2)C(C)=CC(C)(C)N4C(=O)C3=O)c1,19.6 µM
20,Cc1cccc(NC(=O)/C(C#N)=C/c2cn(CC(=O)NCc3ccco3)c3ccccc23)c1C,> 80 µM (inactive)
21,O=C(c1ccc2c(c1)[nH]c(=S)n1c3ccccc3nc21)N1CCN(c2cccc(Cl)c2)CC1,> 80 µM (inactive)

# From PubChem BioAssay AID489032 (Sanford-Burnham Center for Chemical Genomics, 2010)
